The text below walks through data of patent publication US10023570B2 (Array BioPharma, Inc., priority 2015, dated 2018).

Each structure is given as a SMILES string. Structures can show the parent of a compound that is named as a salt. Where two headings read alike, the source gives them in different places.

For assay [1], the target named is Kif5b-RET fusion protein in HEK-293 cells (Homo sapiens, UniProt P07949). The experiment in a line: cell-based. The procedure: The cellular potency of a compound inhibiting RET kinase was determined in HEK-293 cells expressing a Kif5b-RET fusion protein. Briefly, HEK-293 cells expressing a Kif5b-RET fusion protein were plated at 50K cells/well in 96 well poly-D-Lysine coated plates the day prior to the assay. The cells were incubated for 1 hour with test compound in DMEM (Dulbecco's Modified Eagle Medium) at a final DMSO concentration of 0.5%. […] After 1 hour the media was removed, the cells were fixed with 3.8% formaldehyde for 20 min, washed with PBS, and permeabilized for 10 min with 100% methanol. […] All antibodies were diluted in LI-COR Block containing 0.05% Tween. The plates were washed with PBS-0.05% Tween20, 100 μL PBS was added to each well, and the plates were read on a LI-COR Aerius fluorescent plate reader. The phospho-RET signal was normalized to the GAPDH signal. […] The IC50 value is the point where the curve crosses 50 POC.

Assay [2] concerns the target N-terminal GST tagged recombinant human RET cytoplasmic domain (aa 658-end), wild type RET kinase (Homo sapiens (Human), UniProt P07949). The assay can be described thus: RET Enzyme Assay (HTRF KinEASE-TK), wild type RET. Type of assay: biochemical. On the technique in general: In TR-FRET formats the signal depends on donor and acceptor labels being close together.
Where [3] appears, read: HEK-293 cells expressing Kif5b-RET, read-out: KIF5B-RET pTYR1062 Cell IC50.
Setting [4] is: HEK-293 cells expressing Kif5b-RET, phospho-RET(Tyr1062), read-out: KIF5B-RET pTYR1062 Cell IC50.

N-terminal GST tagged recombinant human RET cytoplasmic domain (aa 658-end), wild type RET kinase, sequence (P07949 658-1114): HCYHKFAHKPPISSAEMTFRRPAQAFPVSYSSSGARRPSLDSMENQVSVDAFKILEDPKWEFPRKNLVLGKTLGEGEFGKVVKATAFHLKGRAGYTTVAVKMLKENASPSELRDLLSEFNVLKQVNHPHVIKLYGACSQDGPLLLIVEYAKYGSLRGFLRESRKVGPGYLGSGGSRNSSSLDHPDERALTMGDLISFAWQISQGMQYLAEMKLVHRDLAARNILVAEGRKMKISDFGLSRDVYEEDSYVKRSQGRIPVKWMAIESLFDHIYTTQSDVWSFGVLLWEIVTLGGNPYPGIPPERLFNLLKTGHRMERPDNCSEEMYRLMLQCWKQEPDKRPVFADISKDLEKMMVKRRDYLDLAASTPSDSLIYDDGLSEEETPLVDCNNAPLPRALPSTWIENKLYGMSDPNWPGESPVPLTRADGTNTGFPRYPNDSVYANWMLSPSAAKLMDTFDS
Kif5b-RET fusion protein in HEK-293 cells, sequence (P07949 29-1114 limits assumed): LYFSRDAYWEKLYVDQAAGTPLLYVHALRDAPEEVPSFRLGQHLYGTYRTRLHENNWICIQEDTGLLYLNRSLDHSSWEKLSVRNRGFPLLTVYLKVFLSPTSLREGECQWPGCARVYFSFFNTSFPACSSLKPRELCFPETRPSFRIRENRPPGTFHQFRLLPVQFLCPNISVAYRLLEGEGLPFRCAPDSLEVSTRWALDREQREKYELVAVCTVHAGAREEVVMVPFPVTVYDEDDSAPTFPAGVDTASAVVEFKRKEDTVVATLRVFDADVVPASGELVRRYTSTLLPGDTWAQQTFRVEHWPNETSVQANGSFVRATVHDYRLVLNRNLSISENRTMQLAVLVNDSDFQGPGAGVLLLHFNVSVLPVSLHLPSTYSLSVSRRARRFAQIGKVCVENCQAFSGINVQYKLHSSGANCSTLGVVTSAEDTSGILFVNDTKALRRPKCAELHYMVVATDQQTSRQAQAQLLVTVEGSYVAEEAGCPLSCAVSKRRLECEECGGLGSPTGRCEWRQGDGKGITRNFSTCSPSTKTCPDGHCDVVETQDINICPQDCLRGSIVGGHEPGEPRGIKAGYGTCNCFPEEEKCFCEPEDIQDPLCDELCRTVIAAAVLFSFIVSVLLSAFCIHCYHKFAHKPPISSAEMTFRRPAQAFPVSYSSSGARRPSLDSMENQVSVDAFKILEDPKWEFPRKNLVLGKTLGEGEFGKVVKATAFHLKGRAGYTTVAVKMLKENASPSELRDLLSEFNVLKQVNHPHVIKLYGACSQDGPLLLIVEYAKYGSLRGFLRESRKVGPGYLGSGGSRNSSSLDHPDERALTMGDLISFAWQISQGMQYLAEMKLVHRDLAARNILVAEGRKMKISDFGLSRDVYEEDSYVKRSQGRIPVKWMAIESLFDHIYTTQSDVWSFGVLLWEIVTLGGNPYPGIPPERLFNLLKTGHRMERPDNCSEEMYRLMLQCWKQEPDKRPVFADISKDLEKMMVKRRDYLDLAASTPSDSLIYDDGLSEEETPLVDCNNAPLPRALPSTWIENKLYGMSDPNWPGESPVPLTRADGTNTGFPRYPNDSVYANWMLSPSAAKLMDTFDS

On to `Cn1cc(-c2cc(-c3ccc(N4CCN(Cc5ccc(OC(F)F)nc5)CC4)nc3)c3c(C#N)cnn3c2)cn1` [Example 675, 4-(6-(4-((6-(difluoromethoxy)pyridin-3-yl)methyl)piperazin-1-yl)pyridin-3-yl)-6-(1-methyl-1H-pyrazol-4-yl)pyrazolo[1,5-a]pyridine-3-carbonitrile], for which the IC50 (in general, the concentration at which inhibition is half-maximal) was determined as 24.1 nM in assay [1] (setting [3]) and 13.6 nM in assay [2] (wild type RET, 1 mM ATP).

`CC(C)S(=O)(=O)CCN1CCN(c2ccc(-c3cc(-c4cnn(C)c4)cn4ncc(C#N)c34)cn2)CC1` [Example 403, 4-(6-(4-(2-(isopropylsulfonyl)ethyl)piperazin-1-yl)pyridin-3-yl)-6-(1-methyl-1H-pyrazol-4-yl)pyrazolo[1,5-a]pyridine-3-carbonitrile]: the IC50 in assay [1] (setting [3]) stood at 4.6 nM; in assay [2] (wild type RET, 1 mM ATP), 10.8 nM.

For the compound `COc1ccc(CN2CCN(c3ccc(-c4cc(-c5cnn(CC(C)CO)c5)cn5ncc(C#N)c45)cn3)CC2)cn1` (stereo in doubt) [Example 708, (S)-6-(1-(3-hydroxy-2-methylpropyl)-1H-pyrazol-4-yl)-4-(6-(4-((6-methoxypyridin-3-yl)methyl)piperazin-1-yl)pyridin-3-yl)pyrazolo[1,5-a]pyridine-3-carbonitrile], the IC50 in assay [1] (setting [3]) is 7 nM; in assay [2] (wild type RET, 1 mM ATP), 19.4 nM.

As to `COc1ccc(CN2CCN(c3ccc(-c4cc(-c5cnn(C(C)C)c5)cn5ncc(C#N)c45)cn3)CC2)cn1` [Example 697, 6-(1-isopropyl-1H-pyrazol-4-yl)-4-(6-(4-((6-methoxypyridin-3-yl)methyl)piperazin-1-yl)pyridin-3-yl)pyrazolo[1,5-a]pyridine-3-carbonitrile], the IC50 in assay [1] turned out to be 13.8 nM; in assay [2] (wild type RET, 1 mM ATP), 28.1 nM.

On to `COc1ccc(CN2CCN(c3ccc(-c4cc(-c5cnn(CC(=O)N(C)C)c5)cn5ncc(C#N)c45)cn3)CC2)cn1` [Example 710, 2-(4-(3-cyano-4-(6-(4-((6-methoxypyridin-3-yl)methyl)piperazin-l-yl)pyridin-3-yl)pyrazolo[1,5-a]pyridin-6-yl)-1H-pyrazol-1-yl)-N,N-dimethylacetamide], for which the IC50 in assay [1] (setting [3]) came to 12.6 nM; in assay [2] (wild type RET, 1 mM ATP) it was 20 nM.

In the case of `CN(C)CCCC(=O)N1CCN(c2ccc(-c3cc(-c4cnn(C)c4)cn4ncc(C#N)c34)cn2)CC1` [Example 52, 4-(6-(4-(4-(dimethylamino)butanoyl)piperazin-1-yl)pyridin-3-yl)-6-(1-methyl-1H-pyrazol-4-yl)pyrazolo[1,5-a]pyridine-3-carbonitrile bis(2,2,2-trifluoroacetate)], the concentration for half-maximal inhibition (IC50) in assay [1] (setting [4]) is 340 nM; in assay [2], 17.7 nM.

Regarding `CC(C)C(=O)N[C@H]1CCCN(c2ccc(-c3cc(-c4cnn(C)c4)cn4ncc(C#N)c34)cn2)C1` [Example 225, (S)—N-(1-(5-(3-cyano-6-(1-methyl-1H-pyrazol-4-yl)pyrazolo[1,5-a]pyridin-4-yl)pyridin-2-yl)piperidin-3-yl)isobutyramide], the 50% inhibitory concentration (IC50) worked out at 462 nM in assay [1] (setting [4]) and 104 nM in assay [2] (wild type RET, 1 mM ATP).

With `COc1ccc(CN2CCN(c3ccc(-c4cc(-c5cnn(CCC(=O)N(C)C)c5)cn5ncc(C#N)c45)cn3)CC2)cn1` [Example 706, 3-(4-(3-cyano-4-(6-(4-((6-methoxypyridin-3-yl)methyl)piperazin-1-yl)pyridin-3-yl)pyrazolo[1,5-a]pyridin-6-yl)-1H-pyrazol-1-yl)-N,N-dimethylpropanamide], the concentration for half-maximal inhibition (IC50) in assay [1] (setting [3]) amounted to 6.4 nM; in assay [2] (wild type RET, 1 mM ATP), 18.3 nM.

On to `Cc1cc(-c2cc(-c3cnn(C)c3)cn3ncc(C#N)c23)cnc1N1CCN(C(=O)OC(C)(C)C)CC1` [Example 275, tert-Butyl 4-(5-(3-cyano-6-(1-methyl-1H-pyrazol-4-yl)pyrazolo[1,5-a]pyridin-4-yl)-3-methylpyridin-2-yl)piperazine-1-carboxylate], for which the IC50 in assay [2] (wild type RET, 1 mM ATP) is 1500 nM.

On to `COCCCN1CCN(c2ccc(-c3cc(-c4cnn(C)c4)cn4ncc(C#N)c34)cn2)CC1` [Example 405, 4-(6-(4-(3-methoxypropyl)piperazin-1-yl)pyridin-3-yl)-6-(1-methyl-1H-pyrazol-4-yl)pyrazolo[1,5-a]pyridine-3-carbonitrile], for which the concentration for half-maximal inhibition (IC50) in assay [1] (setting [3]) turned out to be 32.5 nM; in assay [2] (wild type RET, 1 mM ATP), 30.8 nM.

As for `Cn1cc(-c2cc(-c3ccc(N4CCN(Cc5ccccc5)CC4)nc3)c3c(Cl)cnn3c2)cn1` [Example 647, 4-(6-(4-benzylpiperazin-1-yl)pyridine-3-yl)-3-chloro-6-(1-methyl-1H-pyrazol-4-yl)pyrazolo[1,5-a]pyridine], the concentration for half-maximal inhibition (IC50) amounted to 63 nM in assay [1] (setting [3]) and 34.4 nM in assay [2] (wild type RET, 1 mM ATP).

`COc1ccc(CN2CCN(c3ccc(-c4cc(-c5cnn(C[C@H](C)O)c5)cn5ncc(C#N)c45)cn3)CC2)cn1` [Example 701, (S)-6-(1-(2-hydroxypropyl)-1H-pyrazol-4-yl)-4-(6-(4-((6-methoxypyridin-3-yl)methyl)piperazin-1-yl)pyridin-3-yl)pyrazolo[5-a]pyridine-3-carbonitrile]: the IC50 in assay [1] (setting [3]) stood at 8 nM; in assay [2] (wild type RET, 1 mM ATP) it was 16.5 nM.

Turning to `COc1cc(C)c(CN2CCN(c3ccc(-c4cc(-c5cnn(C)c5)cn5ncc(C#N)c45)cn3)CC2)cn1` [Example 672, 4-(6-(4-((6-methoxy-4-methylpyridin-3-yl)methyl)piperazin-1-yl)pyridin-3-yl)-6-(1-methyl-1H-pyrazol-4-yl)pyrazolo[1,5-a]pyridine-3-carbonitrile], the 50% inhibitory concentration (IC50) worked out at 17.3 nM in assay [1] (setting [3]) and 19.3 nM in assay [2] (wild type RET, 1 mM ATP).

Regarding `Cn1cc(-c2cc(-c3ccc(N4CCN(C(=O)OC(C)(C)C)CC4)nc3)c3c(C#N)cnn3c2)cn1` [Example 1, tert-butyl 4-(5-(3-cyano-6-(1-methyl-1H-pyrazol-4-yl)pyrazolo[1,5-a]pyridin-4-yl)pyridin-2-yl)piperazine-1-carboxylate], the IC50 turned out to be 47.5 nM in assay [1] (setting [4]) and 35.8 nM in assay [2] (wild type RET, 1 mM ATP).

For `Cc1cc(-c2cc(-c3cnn(C)c3)cn3ncc(C#N)c23)cnc1N1CCN(C(=O)CC(C)(C)C)CC1` [Example 279, 4-(6-(4-(3,3-dimethylbutanoyl)piperazin-1-yl)-5-methylpyridin-3-yl)-6-(1-methyl-1H-pyrazol-4-yl)pyrazolo[1,5-a]pyridine-3-carbonitrile], in assay [2] (wild type RET, 1 mM ATP), the half-inhibitory concentration (IC50) is 318 nM.

Take `Cc1cnn2cc(-c3cnn(C)c3)cc(-c3ccc(N4CCNCC4)nc3)c12` [Example 651, 3-methyl-6-(1-methyl-1H-pyrazol-4-yl)-4-(6-(piperazin-1-yl)pyridin-3-yl)pyrazolo[1,5-a]pyridine]: the half-maximal inhibitory concentration (IC50) in assay [2] (wild type RET, 1 mM ATP) was determined as 208 nM.

Turning to `Cc1cc(-c2cc(-c3cnn(C)c3)cn3ncc(C#N)c23)cnc1N1CCN(C(=O)CC(C)(C)O)CC1` [Example 277, 4-(6-(4-(3-hydroxy-3-methylbutanoyl)piperazin-1-yl)-5-methylpyridin-3-yl)-6-(1-methyl-1H-pyrazol-4-yl)pyrazolo[1,5-a]pyridine-3-carbonitrile], in assay [2] (wild type RET, 1 mM ATP), the concentration for half-maximal inhibition (IC50) was 300 nM.

For the compound `Cn1cc(-c2cc(-c3ccc(N4CCNCC4)nc3)c3ccnn3c2)cn1` [Example 312, 6-(1-methyl-1H-pyrazol-4-yl)-4-(6-(piperazin-1-yl)pyridin-3-yl)pyrazolo[1,5-a]pyridine dihydrochloride], in assay [2], the IC50 is 607 nM.

For `Cc1cc(-c2cc(-c3cnn(C)c3)cn3ncc(C#N)c23)cnc1N1CCNCC1` [Example 276, 6-(1-methyl-1H-pyrazol-4-yl)-4-(5-methyl-6-(piperazin-1-yl)pyridin-3-yl)pyrazolo[1,5-a]pyridine-3-carbonitrile dihydrochloride], the IC50 in assay [2] (wild type RET, 1 mM ATP) is 395 nM.

For the compound `Cc1cnn2cc(-c3cnn(C)c3)cc(-c3ccc(N4CCN(C(=O)OC(C)(C)C)CC4)nc3)c12` [Example 650, tert-butyl 4-(5-(3-methyl-6-(1-methyl-1H-pyrazol-4-yl)pyrazolo[1,5-a]pyridin-4-yl)pyridin-2-yl)piperazine-1-carboxylate], the IC50 in assay [2] (wild type RET, 1 mM ATP) is 345 nM.

For `Cn1cc(-c2cc(-c3ccc(N4CCN(C(=O)OC(C)(C)C)CC4)nc3)c3c(Br)cnn3c2)cn1` [Example 649, tert-butyl 4-(5-(3-bromo-6-(1-methyl-1H-pyrazol-4-yl)pyrazolo[1,5-a]pyridin-4-yl)pyridin-2-yl)piperazine-1-carboxylate], in assay [2] (wild type RET, 1 mM ATP), the 50% inhibitory concentration (IC50) came out at 656 nM.

For the compound `CC(C)NC(=O)[C@@H]1CCCN(c2ccc(-c3cc(-c4cnn(C)c4)cn4ncc(C#N)c34)cn2)C1` [Example 229, (R)-1-(5-(3-cyano-6-(1-methyl-1H-pyrazol-4-yl)pyrazolo[1,5-a]pyridin-4-yl)pyridin-2-yl)-N-isopropylpiperidine-3-carboxamide], in assay [2] (wild type RET, 1 mM ATP), the IC50 turned out to be 334 nM.

As to `COc1ccc(CN2CCN(c3ccc(-c4cc(-c5cnn(C(F)F)c5)cn5ncc(C#N)c45)cn3)CC2)cn1` [Example 696, 6-(1-(difluoromethyl)-1H-pyrazol-4-yl)-4-(6-(4-((6-methoxypyridin-3-yl)methyl)piperazin-1-yl)pyridin-3-yl)pyrazolo[1,5-a]pyridine-3-carbonitrile], the IC50 in assay [1] (setting [3]) amounted to 16.1 nM.

`CC(C)NC(=O)[C@H]1CCCN(c2ccc(-c3cc(-c4cnn(C)c4)cn4ncc(C#N)c34)cn2)C1` [Example 230, (S)-1-(5-(3-cyano-6-(1-methyl-1H-pyrazol-4-yl)pyrazolo[1,5-a]pyridin-4-yl)pyridin-2-yl)-N-isopropylpiperidine-3-carboxamide]: the IC50 in assay [2] (wild type RET, 1 mM ATP) stood at 242 nM.
